From publication PMC11994961, “In Vivo pharmacokinetic interactions of ribociclib with rivaroxaban and apixaban in rats: implications for increased drug exposure and dose adjustments” (Frontiers in Pharmacology, 2025)
Like-named read-outs stand apart in the source and are kept apart here.

Assays:
[1] = design: method as in Hindley et al., 2023; details: ref Hindley et al., 2023; cited from earlier work
[2] = Pharmacokinetic study of apixaban in rats, alone and after ribociclib (UPLC-MS/MS plasma levels); type: in vivo, Sprague-Dawley rats; details: for AUC(0-inf) / Cmax / Tmax / half-life / CL/F / MRT inf / MRT last / Vd/F: po, 0.5 mg/kg; for CL/F: read-out: CLz/F (converted); for MRT inf: read-out: MRT0- ∞; for MRT last: read-out: MRT0-t; for Vd/F: read-out: Vz/F
Protocol: Experimental animals were randomly divided into nine groups (n = 6, Table 1). Ribociclib was suspended in methylcellulose (MC), rivaroxaban was prepared in hydroxypropyl methylcellulose (HPMC), and apixaban was suspended in 5% DMSO in water. To achieve steady-state blood concentrations, a drug typically requires five to seven half-lives. Based on this principle, ribociclib was administered orally for eight consecutive days, while rivaroxaban and apixaban were administered orally for five consecutive days to ensure steady-state concentrations were reached before further analysis.
Approximately 0.1 mL of blood was collected into heparinized tubes via the orbitalat specified time points before and after the final drug administration. For apixaban, blood samples were collected at 0, 0.083, 0.167, 0.25, 0.333, 0.5, 0.75, 1, 3, 5, 7, 10, and 12 h. For rivaroxaban, sampling was conducted at 0, 0.167, 0.333, 0.5, 0.75, 1.5, 2, 3, 4, 5, 6, 8, 10, 12, and 24 h. For ribociclib, samples were taken at 0, 0.5, 1, 2, 4, 5, 6, 8, 10, 12, 24, and 48 h. Blood samples were centrifuged at 3,500 rpm for 10 min, and the supernatant was collected and stored at −80°C until processing for UPLC-MS/MS.
Apixaban and rivaroxaban concentrations in plasma samples were determined using our previously established UPLC-MS/MS method ([Wang et al., 2023]). Ribociclib concentrations were quantified using an LC-30A UPLC system (Shimadzu, Kyoto, Japan) coupled with a Sciex Triple Quad 5500 tandem quadrupole mass spectrometer (AB Sciex, Framingham, MA, United States) equipped with an electrospray ionization interface. Chromatographic separation was performed using a Welch Boltimate column (2.1 mm × 100 mm, 2.7 μm) maintained at 40°C. The mobile phase was composed of water containing 0.1% formic acid (phase A) and acetonitrile (phase B). The flow rate was held constant at 0.3 mL/min. The gradient elution protocol was as follows: 0–2.5 min, 60% B; 2.5–3.5 min, 60%–90% B; 3.5–5.5 min, 90% B; 5.5–5.6 min, 90%–60% B; 5.6–6.6 min, 60% B. The injection volume was 1 μL.
Pharmacokinetic parameters were calculated based on a non-compartmental model using DAS 2.1.1 Software (Mathematical Pharmacology Professional Committee of China, Shanghai, China). The area under the concentration–time curve (AUC), maximum plasma concentration (Cmax), time to maximum plasma concentration (Tmax), the time required to eliminate half of the plasma drug concentration (t1/2), clearance of drug plasma volume per unit time (CLz/F), apparent volume distribution (Vz/F), mean residence time (MRT) and the absorption rate constant (Ka) are all expressed as mean ± standard deviation (SD). SPSS 25.0 statistical software (SPSS Inc., Chicago, IL, United States) was applied to statistically analyze the mainpharmacokinetic parameters. Shapiro-Wilk test was used to assess whether the data were normally distributed, t test was used for parameters conforming to the normal distribution, and Mann-Whitney U test was used for parameters not conforming to the normal distribution. Statistical comparisons were conducted using a analysis of variance, t-test or nonparametric rank-sum test depending on the data type. A P-value <0.05 was deemed statistically significant.

[3] = design: method as in Wang et al., 2023; details: rats, with almonertinib; ref Wang et al., 2023; cited from earlier work
[4] = API 0.5 mg/kg after multiple doses of RIBO vs API alone
[5] = Sprague-Dawley, rat, plasma, API 0.5 mg/kg after RIBO 60 mg/kg for 8 days
[6] = Sprague-Dawley, rat, plasma, oral API 0.5 mg/kg alone

COc1ccc(-n2nc(C(N)=O)c3c2C(=O)N(c2ccc(N4CCCCC4=O)cc2)CC3)cc1 [API, apixaban]
plasma protein binding [1]: approximately 87% | AUC(0-t) ([2]; API 0.5 mg/kg after RIBO 60 mg/kg for 8 days): 608.21 ± 196.17 µg·h/L | CLz/F was decreased by [2, 4]: 32.23% | difference in AUC0-t [2, 4]: not statistically significant | difference in Cmax [2, 4]: not statistically significant | difference in Tmax [2, 4]: not statistically significant | increase of MRT0- ∞ [2, 4]: 61.41% | increase of MRT0-t [2, 4]: 14.45% | increase of t1/2z [2, 4]: 115.90% | AUC(0-t) ([2]; Sprague-Dawley, rat, plasma, oral API 0.5 mg/kg alone, read-out: AUC0-t): 409 ± 55.3 µg·h/L | AUC(0-inf) [2, 5]: 675 ± 221 ng·h/mL | Cmax [2, 5]: 156 ± 42.4 ng/mL | Tmax [2, 5]: 45 ± 9.6 min | half-life [2, 5]: 310 ± 193 min | CL/F [2, 5]: 13.7 mL/min/kg | MRT inf [2, 5]: 4.81 ± 2.07 h | MRT last [2, 5]: 3.01 ± 0.3 h | Vd/F [2, 5]: 5.57 ± 2.63 L/kg | AUC(0-inf) [2, 6]: 420 ± 54.2 ng·h/mL | Cmax [2, 6]: 140 ± 29.4 ng/mL | Tmax [2, 6]: 52.8 ± 8.4 min | half-life [2, 6]: 143 ± 31.8 min | CL/F [2, 6]: 20.2 mL/min/kg | MRT inf [2, 6]: 2.98 ± 0.32 h | MRT last [2, 6]: 2.63 ± 0.1 h | Vd/F [2, 6]: 4.16 ± 1.07 L/kg | increase in AUC [3]: over three fold increases | increase in Cmax [3]: over three fold increases
